Test results from patent US20060035838A1, “Drug therapy for celiac sprue” (The Board of Trustees of the Leland Stanford Junior …, priority 2002, published 2006).
Where two headings read alike, the source gives them in different places. One block for each molecule: values may come before it. *1 amine or outer side, *2 acyl side, *3 side chain or, on linkers, in order; H or OH if unused. Where a SMILES comes first, the peptide text is derived from it. [ ]: non-standard residue; d: D form. X1 = O=C([C@@H](N[*:1])[C@@H]1CC(Cl)=NO1)[*:2]; DON = [N-]=[N+]=CC(=O)CC[C@H](N)C(=O)O

How the values were obtained:
[1] = molecular target: T1, recombinant human tissue transglutaminase (Homo sapiens, UniProt P21980); experiment: Inhibition of tissue transglutaminase (residual tTG activity, glutamate dehydrogenase coupled assay); assay type: biochemical; set-up: made in house
T1 sequence (P21980 1-687): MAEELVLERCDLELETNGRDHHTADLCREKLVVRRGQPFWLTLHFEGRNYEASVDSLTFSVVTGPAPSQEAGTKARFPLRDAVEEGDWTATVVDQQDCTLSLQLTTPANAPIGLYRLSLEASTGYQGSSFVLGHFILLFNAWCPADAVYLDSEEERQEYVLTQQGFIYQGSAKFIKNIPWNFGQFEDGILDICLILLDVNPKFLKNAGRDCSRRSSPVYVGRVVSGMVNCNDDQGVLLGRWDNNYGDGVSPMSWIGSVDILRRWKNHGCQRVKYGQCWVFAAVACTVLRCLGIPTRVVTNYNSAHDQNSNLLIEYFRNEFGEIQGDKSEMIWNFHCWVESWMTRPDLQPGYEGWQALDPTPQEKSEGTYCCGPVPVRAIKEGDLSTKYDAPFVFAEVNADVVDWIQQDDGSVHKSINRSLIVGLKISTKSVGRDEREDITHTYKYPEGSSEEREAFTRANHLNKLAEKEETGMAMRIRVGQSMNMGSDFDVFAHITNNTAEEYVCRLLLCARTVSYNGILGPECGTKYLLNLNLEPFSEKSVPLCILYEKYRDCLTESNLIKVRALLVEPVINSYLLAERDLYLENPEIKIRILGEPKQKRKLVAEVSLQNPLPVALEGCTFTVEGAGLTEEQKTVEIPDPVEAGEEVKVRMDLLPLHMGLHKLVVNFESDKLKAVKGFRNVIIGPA

[2] = molecular target: T1, recombinant human tissue transglutaminase; experiment: Catalysis of reactive glutamine substrates by tissue transglutaminase; settings: read-out: KM (reactive motif Gln); X = Gln, substrate
[3] = substrate: NCCc1c[nH]cn1; experiment: purified protein, by the assay type; settings: other: nucleophilic amine co-substrate
[4] = substrate: CC(C)C[C@H](NC(=O)[C@H](CCC(N)=O)NC(=O)[C@@H]1CCCN1C(=O)[C@H](CCC(N)=O)NC(=O)[C@@H]1CCCN1)C(=O)N1CCC[C@H]1C(=O)N[C@@H](Cc1ccc(O)cc1)C(=O)O; experiment: purified protein, by the assay type; settings: other: X = Gln, substrate; pH 7.1; 30.0 °C
[5] = substrate: CC(=O)N1CCC[C@H]1C(=O)N[C@@H](CCC(N)=O)C(=O)N1CCC[C@H]1C(=O)N[C@@H](CCC(N)=O)C(=O)N[C@@H](CC(C)C)C(=O)N1CCC[C@H]1C(=O)N[C@@H](Cc1ccccc1)C(N)=O; experiment: purified protein, by the assay type; settings: other: X = Gln, substrate; pH 7.1; 30.0 °C
[6] = Table 3, sulfonamides and sulfonyl hydrazides, competitive inhibition constant, read-out: inhibition constant
[7] = X = acivicin, 200 mM MOPS pH 7.1, 30° C.

Ki [1, 6]: 2.2 mM
Molecule: CCOC(=O)[C@H](CCS(=O)(=O)NN)NC(=O)OCc1ccccc1 [(S)-2-Benzyloxycarbonylamino-4-hydrazinosulfonyl-butyric acid ethyl ester]

Ki [1, 6]: 0.13 mM
Molecule: CCOC(=O)[C@H](CCS(=O)(=O)NNc1ccccc1)NC(=O)OCc1ccccc1 [(S)-2-Benzyloxycarbonylamino-4-phenylhydrazinosulfonyl-butyric acid ethyl ester]

Ki [1, 6]: 4.4 mM
Molecule: CCOC(=O)[C@H](CCS(N)(=O)=O)NC(=O)OCc1ccccc1 [(S)-2-Benzyloxycarbonylamino-4-sulfamoyl-butyric acid ethyl ester]

kinh (reactive motif DON) ([1]; X = 6-diazo-5-oxo-norleucine): 0.2 min⁻¹
kinh/KI (reactive motif DON) ([1]; X = 6-diazo-5-oxo-norleucine): 2.9 × 10^6 min^−1M^−1
Molecule: CC(=O)N1CCC[C@H]1C(=O)N[C@@H](CCC(N)=O)C(=O)N1CCC[C@H]1C(=O)N[C@@H](CCC(=O)C=[N+]=[N-])C(=O)N[C@@H](CC(C)C)C(=O)N1CCC[C@H]1C(=O)N[C@@H](Cc1ccccc1)C(N)=O [Ac—PQP—X—LPF—NH2, X=DON, Ac-Pr-Gl-Pr-DonLeu-Pr-PheNH2] (Ac-PQP[DON]LPF-NH2)

kinh (reactive motif DON) ([1]; X = 6-diazo-5-oxo-norleucine): 0.12 min⁻¹
kinh/KI (reactive motif DON) ([1]; X = 6-diazo-5-oxo-norleucine): 890 min^−1M^−1
Ki ([1]; X = 6-diazo-5-oxo-norleucine, read-out: KI (reactive motif DON)): 0.135 mM
Molecule: COC(=O)C(CCC(=O)C=[N+]=[N-])NC(=O)OCc1ccccc1 (centres unmarked) [Cbz-X—OMe, X=DON]

Km [2]: > 30000 µM
Molecule: COC(=O)[C@H](CCC(N)=O)NC(=O)OCc1ccccc1 [Cbz-X—OMe, X=Gln]

kinh/KI (reactive motif Aci) ([1]; X = acivicin): 0.17 min^−1M^−1
kinh (reactive motif Aci) [1, 7]: 0.015 min⁻¹
Ki ([1]; X = acivicin, 200 mM MOPS pH 7.1, 30° C., read-out: KI (reactive motif Aci)): 87 mM
Molecule: N[C@H](C(=O)O)[C@@H]1CC(Cl)=NO1 [H—X—OH, X=Aci, acivicin, reference compound]

Molecule: [N-]=[N+]=CC(=O)CC[C@H](N)C(=O)O [H—X—OH, X=DON, 6-diazo-5-oxo-norleucine, reference compound]
kinh (reactive motif DON) ([1]; X = 6-diazo-5-oxo-norleucine): 0.025 min⁻¹
kinh/KI (reactive motif DON) ([1]; X = 6-diazo-5-oxo-norleucine): 0.2 min^−1M^−1

kinh/KI (reactive motif Aci) ([1]; X = acivicin): 18 min^−1M^−1
kinh (reactive motif Aci) [1, 7]: 0.014 min⁻¹
Molecule: CC(C)C[C@H](NC(=O)[C@@H](NC(=O)[C@@H]1CCCN1C(=O)[C@H](CCC(N)=O)NC(=O)[C@@H]1CCCN1)[C@@H]1CC(Cl)=NO1)C(=O)N1CCC[C@H]1C(=O)N[C@@H](Cc1ccc(O)cc1)C(=O)O [PQP—X—LPY, X=Aci, Pro-Gln-Pro-Aci-Leu-Pro-Tyr] (H-PQP[X1]LPY-OH; C-terminus assumed)

Ki ([1]; Table 2, Sab derivatives, reversible competitive inhibition, read-out: KI): 8 mM
Molecule: NS(=O)(=O)CCC(NC(=O)OCc1ccccc1)C(=O)NCC(=O)O (centres unmarked) [Z-Sab-Gly]

B1: human tTGase (Homo sapiens) (protein)
chain: T1 sequence (P21980 1-687)
Km [3]: 40 µM
kcat [3]: 0.333 s⁻¹

B2: recombinant human tissue transglutaminase (Homo sapiens) (protein)
chain: T1 sequence (P21980 1-687)
Km [4]: 300 µM
Km [5]: 400 µM
kcat [5]: 0.667 s⁻¹
kcat/Km [5]: 1620 M⁻¹ s⁻¹
